Assay [1] addresses T1, α-NAGA mutant (Homo sapiens, UniProt P17050, A191L/S188E).
T1 sequence (P17050 with tags, fused parts or gaps S188E/A191L): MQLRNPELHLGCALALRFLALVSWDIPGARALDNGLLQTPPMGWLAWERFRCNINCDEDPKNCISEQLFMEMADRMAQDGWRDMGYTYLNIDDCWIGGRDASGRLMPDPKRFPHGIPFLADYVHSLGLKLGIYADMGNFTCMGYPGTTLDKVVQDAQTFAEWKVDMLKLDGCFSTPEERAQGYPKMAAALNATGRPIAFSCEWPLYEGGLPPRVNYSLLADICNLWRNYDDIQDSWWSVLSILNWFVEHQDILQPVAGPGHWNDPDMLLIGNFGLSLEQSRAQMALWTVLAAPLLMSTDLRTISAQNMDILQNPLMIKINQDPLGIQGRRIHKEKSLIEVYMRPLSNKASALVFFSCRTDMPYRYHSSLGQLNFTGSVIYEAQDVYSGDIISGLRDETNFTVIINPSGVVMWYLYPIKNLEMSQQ
Nature of the assay: Screening of inhibitor (2): inhibition of enzyme activity of α-NAGA mutant. The assay is classed as biochemical. To be noted: 0.1, 1, or 10 μM compound, pH 4.6, 37° C., 30 minutes; FIG. 1. Here is the method: The second screening was carried out as follows: DGJ, GBS, N-C-DGJ, N-DGJ, or N-HE-DGJ dissolved in purified water or DMSO was added to 25 ng of an α-NAGA mutant and 4 mM 4-methylumbelliferylα-D-galactopyranoside dissolved in 0.1 M phosphate-citrate buffer (pH 4.6) such that a concentration of DGJ, GBS, N-C-DGJ, N-DGJ, or N-HE-DGJ became 0.1, 1, or 10 μM, and the mixture thus obtained was caused to react at 37° C. for 30 minutes (the total amount was 50 μl). After the reaction was finished, 950 μl of 0.2 M glycine buffer (pH 10.7) was added to stop the reaction. Then, released 4-methylumbelliferone was measured at an excitation wavelength of 355 nm and at a fluorescence wavelength of 460 nm with use of Wallac 1420 ARVO MX Multilabel Counter. Remaining enzyme activity was calculated based on the assumption that an enzyme activity value obtained in a case where purified water or DMSO is added instead of the inhibitor candidate compound is 100%. FIG. 1 is a view illustrating inhibition of enzyme activity of an α-NAGA mutant by DGJ.

Assay [2] deals with T1, α-NAGA mutant. Nature of the assay: Calculation of inhibition constant Ki (Lineweaver-Burk plot). To be noted: substrate 1-8 mM; DGJ 100-400 nM, GBS 200-800 nM; pH 4.6; FIG. 2. The class given is biochemical. Here is the method:
Enzymatic analysis was carried out by using, as a reaction liquid, 50 ng of an α-NAGA mutant and 0.1 M phosphate-citrate buffer (pH 4.6) in which a 4-methylumbelliferylα-D-galactopyranoside substrate was dissolved at any of concentrations (1, 2, 4, 6, and 8 mM) (the total amount was 50 μl). In measuring inhibitory activity, reaction was carried out with a reaction liquid which contained DGJ at a concentration of 100, 200, or 400 nM or GBS at a concentration of 200, 400, or 800 nM. After the reaction was carried out at 37° C. for 10 minutes, 950 μl of 0.2 M glycine buffer (pH 10.7) was added to stop the reaction. Then, released 4-methylumbelliferone was measured at an excitation wavelength of 355 nm and at a fluorescence wavelength of 460 nm with use of Wallac 1420 ARVO MX Multilabel Counter. From these values, a Lineweaver-Burk plot was prepared and an inhibition constant Ki was calculated from slopes in the plot which correspond to respective concentrations of the inhibitor.

Assay [3] concerns the target T2, α-NAGA mutant (SEQ ID NO:8) (Homo sapiens, UniProt P17050, A191L/S188E).
T2 sequence (P17050 with tags, fused parts or gaps S188E/A191L): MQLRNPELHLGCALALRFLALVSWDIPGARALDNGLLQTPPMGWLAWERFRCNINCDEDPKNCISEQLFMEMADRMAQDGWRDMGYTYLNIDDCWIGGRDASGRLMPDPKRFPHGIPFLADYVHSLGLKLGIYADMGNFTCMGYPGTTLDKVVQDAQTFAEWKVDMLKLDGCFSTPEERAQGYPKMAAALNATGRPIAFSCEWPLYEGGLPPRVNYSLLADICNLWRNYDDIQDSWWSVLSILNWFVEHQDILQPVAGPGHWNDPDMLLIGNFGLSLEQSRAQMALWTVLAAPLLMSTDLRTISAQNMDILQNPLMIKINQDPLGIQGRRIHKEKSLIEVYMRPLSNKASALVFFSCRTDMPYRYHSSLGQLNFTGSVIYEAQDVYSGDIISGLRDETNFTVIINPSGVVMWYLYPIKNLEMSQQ
Nature of the assay: Screening of inhibitor (1): remaining enzyme activity of α-NAGA mutant with 4-methylumbelliferyl α-D-galactopyranoside. The assay is classed as biochemical. To be noted: 400 μM compound, pH 4.6, 37° C., 30 minutes. Here is the method:
The screening of inhibitor was carried out as follows: An inhibitor candidate compound dissolved in purified water or DMSO was added to 20 ng of an α-NAGA mutant (SEQ ID NO:8) and 4 mM 4-methylumbelliferylα-D-galactopyranoside dissolved in 0.1 M phosphate-citrate buffer (pH 4.6) such that a concentration of the inhibitor candidate compound became 0.8, 1, or 400 μM, and the mixture thus obtained was caused to react at 37° C. for 30 minutes (the total amount was 50 μl). After the reaction, 950 μl of 0.2 M glycine buffer (pH 10.7) was added to stop the reaction. Then, released 4-methylumbelliferone was measured at an excitation wavelength of 355 nm and at a fluorescence wavelength of 460 nm with use of Wallac 1420 ARVO MX Multilabel Counter. Remaining enzyme activity was calculated based on the assumption that an enzyme activity value obtained in a case where purified water or DMSO is added instead of the inhibitor candidate compound is 100%.

Assay [4] concerns Fabry disease model mouse. To be noted: Fabry disease model mouse to which the α-NAGA mutant has been administered; cited from earlier work.

Here are results for two molecules from patent US20200115698A1, “PHARMACEUTICAL COMBINATION FOR TREATMENT OF FABRY DISEASE AND USE THEREOF” (MEIJI PHARMACEUTICAL UNIVERSITY, priority 2017, published 2020).

`O=S(=O)(O)C1NC(CO)C(O)C(O)C1O` (stereo not shown) [GBS, galactostatin bisulfite]: the “inhibition of enzyme activity of an α-NAGA mutant (remaining enzyme activity)” value against α-NAGA mutant [1] was “had the effect of inhibiting activity of an α-NAGA mutant”. The “inhibition pattern from inhibition constant Ki” value on α-NAGA mutant [2] is on record as “inhibitory activity by competitive inhibition”. In assay [3], the “inhibition effect on α-NAGA mutant (remaining enzyme activity)” value is listed as “the inhibition effect was seen”.

B1: α-NAGA mutant: mutant human α-N-acetylgalactosaminidase, serine 188 to glutamic acid and alanine 191 to leucine, having α-galactosidase activity (SEQ ID NO:8 used) (protein)
chain: MQLRNPELHLGCALALRFLALVSWDIPGARALDNGLLQTPPMGWLAWERFRCNINCDEDPKNCISEQLFMEMADRMAQDGWRDMGYTYLNIDDCWIGGRDASGRLMPDPKRFPHGIPFLADYVHSLGLKLGIYADMGNFTCMGYPGTTLDKVVQDAQTFAEWKVDMLKLDGCFSTPEERAQGYPKMAAALNATGRPIAFSCEWPLYEGGLPPRVNYSLLADICNLWRNYDDIQDSWWSVLSILNWFVEHQDILQPVAGPGHWNDPDMLLIGNFGLSLEQSRAQMALWTVLAAPLLMSTDLRTISAQNMDILQNPLMIKINQDPLGIQGRRIHKEKSLIEVYMRPLSNKASALVFFSCRTDMPYRYHSSLGQLNFTGSVIYEAQDVYSGDIISGLRDETNFTVIINPSGVVMWYLYPIKNLEMSQQ
As to B1, the “degradation of Gb3 and Lyso-Gb3 accumulated in organs” value in assay [4] was “Gb3 and Lyso-Gb3 which are accumulated in organs are degraded”.
